Data from the supplement of paper PMC10307832.

Columns and labels:
Test in all cases: relative viability (nuclei count vs DMSO), 5 days (fraction); higher = more cells survive
Veliparib + Vorinostat = compound: C[C@]1(c2nc3c(C(N)=O)cccc3[nH]2)CCCN1 [Veliparib] + O=C(CCCCCCC(=O)Nc1ccccc1)NO [Vorinostat] (partner 1 µM)
Procedure, shortened: (§1)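 Relative viability equals treated-well nuclei counts divided by vehicle-well nuclei counts. Counts came from 4× images of lung cancer cell lines grown in 1536-well plates for 5 days after pin-tool dosing on the day after seeding. Dosing used one drug alone or a fixed anchor-drug dose plus five library-drug doses (not always all listed) in √10 steps, and values are medians of duplicate plates.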

[1] = compound: COC1=CC=C(C=C1)CN2C=CC3=C2C=C(C=C3)C(=O)NO + CC(=O)c1c(C)c2cnc(Nc3ccc(N4CCNCC4)cn3)nc2n(C2CCCC2)c1=O [Palbociclib] (partner 0.5 µM)
Procedure, shortened: as §1

[2] = compound: COC1=CC=C(C=C1)CN2C=CC3=C2C=C(C=C3)C(=O)NO + C[C@@H](Oc1cc(-c2cnn(C3CCNCC3)c2)cnc1N)c1c(Cl)ccc(F)c1Cl [Crizotinib] (partner 1 µM)
Procedure, shortened: as §1

Veliparib + Bortezomib = compound: C[C@]1(c2nc3c(C(N)=O)cccc3[nH]2)CCCN1 [Veliparib] + CC(C)C[C@H](NC(=O)[C@H](Cc1ccccc1)NC(=O)c1cnccn1)B(O)O [Bortezomib] (partner 0.002 µM)
Procedure, shortened: as §1

Cell Line | relative viability (Veliparib + Vorinostat; first compound 0.02 µM) | relative viability (Veliparib + Vorinostat; first compound 0.06325 µM) | relative viability (Veliparib + Vorinostat; first compound 0.2 µM) | relative viability (Veliparib + Vorinostat; first compound 0.6325 µM) | relative viability (Veliparib + Vorinostat; first compound 2 µM) | relative viability ([1]; first compound 0.253 µM) | relative viability ([1]; first compound 0.8 µM) | relative viability ([1]; first compound 2.53 µM) | relative viability ([1]; first compound 8 µM) | relative viability ([2]; first compound 0.253 µM) | relative viability ([2]; first compound 0.8 µM) | relative viability ([2]; first compound 2.53 µM) | relative viability ([2]; first compound 8 µM) | relative viability (Veliparib + Bortezomib; first compound 0.06325 µM) | relative viability (Veliparib + Bortezomib; first compound 0.2 µM) | relative viability (Veliparib + Bortezomib; first compound 0.6325 µM) | relative viability (Veliparib + Bortezomib; first compound 2 µM) | relative viability ([1]; first compound 0.08 µM) | relative viability ([2]; first compound 0.08 µM) | relative viability (Veliparib + Bortezomib; first compound 0.02 µM)
LCLC-97TM1 | 0.455 | 0.797 | 0.849 | 0.632 | 0.637 | 0.226 | 0.23 | 0.223 | 0.229 | 0.285 | 0.395 | 0.259 | 0.237 | 0.269 | 0.554 | 1.12 | 0.834 | – | – | –
LCLC-103H | 0.846 | 0.726 | 0.819 | 0.749 | 0.77 | 0.439 | 0.481 | 0.466 | 0.515 | 0.94 | 1.15 | 0.984 | 1.02 | 0.963 | 1.01 | 1.05 | 0.933 | 0.435 | 1.1 | 0.822
LOU-NH91 | 0.846 | 0.842 | 0.919 | 0.822 | 0.945 | 0.537 | 0.548 | 0.574 | 0.529 | 0.738 | 0.752 | 0.763 | 0.704 | 0.387 | 0.511 | 0.464 | 0.476 | – | 0.693 | 0.486
LU99A | 0.513 | 0.477 | 0.396 | 0.441 | 0.402 | 0.406 | 0.424 | 0.416 | 0.352 | 0.573 | 0.541 | 0.562 | 0.553 | 1.1 | 0.833 | 1.06 | 1.29 | – | – | 1.16
LXF-289 | 0.809 | 0.812 | 0.743 | 0.655 | 0.794 | 0.588 | 0.609 | 0.607 | 0.581 | 0.827 | 0.827 | 0.803 | 0.793 | 0.975 | 1 | 0.959 | 1.02 | – | 0.317 | 0.997
NCI-H23 | 0.633 | 0.45 | 0.544 | 0.543 | 0.56 | 0.611 | 0.556 | 0.496 | 0.461 | 0.708 | 0.445 | 0.343 | 0.401 | 1.04 | 1.02 | 0.883 | 1.08 | 0.393 | 0.481 | 0.887
NCI-H322M | – | 0.873 | 0.899 | 0.976 | 0.717 | – | 0.513 | 0.435 | 0.48 | 0.816 | 0.98 | 0.851 | 0.793 | 1.15 | 1.26 | 1.07 | 1.17 | – | – | 1.25
NCI-H441 | 0.75 | 0.552 | 0.63 | 0.695 | 0.83 | 0.235 | 0.238 | 0.231 | 0.185 | 0.835 | 0.862 | 0.787 | 0.597 | 0.293 | 0.533 | 0.365 | 0.401 | 0.23 | 1.25 | 0.472
NCI-H460 | 0.693 | 0.608 | 0.599 | 0.602 | 0.635 | 0.173 | 0.0964 | 0.186 | 0.108 | 0.959 | 0.846 | 0.882 | 0.917 | 0.952 | 1.01 | 1.07 | 1.09 | 0.201 | 0.774 | –
NCI-H520 | 0.769 | 0.62 | 0.612 | 0.727 | 0.773 | 0.194 | 0.208 | 0.214 | 0.195 | 0.834 | 0.776 | 0.723 | 0.736 | 0.67 | 0.791 | 0.608 | 0.643 | 0.197 | 0.321 | 0.532
NCI-H647 | 0.584 | 0.606 | 0.385 | 0.366 | 0.427 | 0.364 | 0.379 | 0.494 | 0.438 | 1 | 1.04 | 0.914 | 1.01 | 1 | 0.847 | 0.985 | 0.965 | 0.441 | 0.868 | 1.23
NCI-H650 | 0.29 | 0.333 | 0.397 | 0.457 | 0.432 | 0.381 | 0.353 | 0.319 | 0.32 | 0.832 | 0.68 | 0.71 | 0.656 | 0.675 | 0.64 | 0.744 | 0.565 | 0.328 | 0.378 | 0.635
NCI-H661 | 0.815 | 0.807 | 0.713 | 0.697 | 0.76 | 0.406 | 0.403 | 0.422 | 0.353 | 0.814 | 1.08 | 1.05 | 1 | 0.877 | 0.767 | 0.731 | 0.777 | – | – | 0.635
NCI-H727 | 1.11 | 0.948 | 1.1 | 1.14 | 1.04 | 0.631 | 0.698 | 0.644 | 0.601 | 0.945 | 0.98 | 0.71 | 0.592 | 0.754 | 0.755 | 0.82 | 0.815 | 0.61 | 0.578 | 0.381
NCI-H838 | 0.792 | 0.692 | 0.71 | 0.652 | 0.725 | 0.237 | 0.226 | 0.228 | 0.18 | 0.911 | 0.882 | 0.853 | 0.829 | 0.79 | 0.926 | 0.686 | 0.848 | 0.214 | – | 0.905
NCI-H1355 | 0.44 | 0.528 | 0.638 | 0.626 | 0.596 | 0.471 | 0.425 | 0.413 | 0.411 | 1.2 | 1.02 | 1.12 | 0.977 | 0.707 | 1.23 | 1.09 | 1.15 | 0.382 | 0.913 | –
NCI-H1437 | 0.886 | 0.746 | 0.798 | 0.887 | 0.813 | 0.295 | 0.344 | 0.366 | 0.326 | 0.961 | 0.993 | 0.989 | 0.939 | 0.496 | 0.472 | 0.47 | 0.474 | 0.283 | 0.661 | 0.424
